Assay results reported in the supplement of paper PMC10307832.

Key:
Assay in all cases: relative viability (nuclei count vs DMSO), 5 days (fraction); higher = more cells survive
UMC-11 = test system: UMC-11
Method in brief: (§1)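 Lung cancer cell lines were seeded in 1536-well plates and dosed by pin tool the next day, with either a single drug or a fixed anchor-drug dose combined with five library-drug doses (not always all listed) spaced in √10 steps. Five days later, one step fixed the cells and stained their nuclei (final 0.05% Triton X-100, 1% formaldehyde, 1 ug/ml Hoechst), and nuclei were counted on 4× images. Relative viability is the nuclei count in treated wells divided by the count in vehicle wells, and each value is the median of duplicate plates.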

EPLC-272H = test system: EPLC-272H
Method in brief: as §1

EMC-BAC-2 = test system: EMC-BAC-2
Method in brief: as §1

CAL-12T = test system: CAL-12T
Method in brief: as §1

COR-L 105 = test system: COR-L 105
Method in brief: as §1

NCI-H441 = test system: NCI-H441
Method in brief: as §1

NCI-H358 = test system: NCI-H358
Method in brief: as §1

HOP-62 = test system: HOP-62
Method in brief: as §1

NCI-H2126 = test system: NCI-H2126
Method in brief: as §1

NCI-H1755 = test system: NCI-H1755
Method in brief: as §1

NCI-H322M = test system: NCI-H322M
Method in brief: as §1

HCC-15 = test system: HCC-15
Method in brief: as §1

ChaGo-K-1 = test system: ChaGo-K-1
Method in brief: as §1

NCI-H1915 = test system: NCI-H1915
Method in brief: as §1

LXF-289 = test system: LXF-289
Method in brief: as §1

NCI-H2023 = test system: NCI-H2023
Method in brief: as §1

HCC-78 = test system: HCC-78
Method in brief: as §1

NCI-H2085 = test system: NCI-H2085
Method in brief: as §1

NCI-H3122 = test system: NCI-H3122
Method in brief: as §1

NCI-H1975 = test system: NCI-H1975
Method in brief: as §1

NCI-H1666 = test system: NCI-H1666
Method in brief: as §1

## COc1nc(C)cnc1NS(=O)(=O)c1cccnc1-c1ccc(-c2nnco2)cc1 [Zibotentan] + CC(=O)Nc1cccc(-n2c(=O)n(C3CC3)c(=O)c3c(Nc4ccc(I)cc4F)n(C)c(=O)c(C)c32)c1 [Trametinib] (partner 0.02 µM)
UMC-11; first compound 0.08 µM
  relative viability: 0.617
UMC-11; first compound 0.253 µM
  relative viability: 0.665
UMC-11; first compound 0.8 µM
  relative viability: 0.741
UMC-11; first compound 2.53 µM
  relative viability: 0.779
EPLC-272H; first compound 0.08 µM
  relative viability: 0.287
EPLC-272H; first compound 0.253 µM
  relative viability: 0.234
EPLC-272H; first compound 0.8 µM
  relative viability: 0.31
EPLC-272H; first compound 2.53 µM
  relative viability: 0.312
EMC-BAC-2; first compound 0.08 µM
  relative viability: 0.952
EMC-BAC-2; first compound 0.8 µM
  relative viability: 0.994
EMC-BAC-2; first compound 2.53 µM
  relative viability: 0.914
CAL-12T; first compound 0.08 µM
  relative viability: 0.34
CAL-12T; first compound 0.253 µM
  relative viability: 0.303
CAL-12T; first compound 0.8 µM
  relative viability: 0.349
CAL-12T; first compound 2.53 µM
  relative viability: 0.337
COR-L 105; first compound 0.08 µM
  relative viability: 0.403
COR-L 105; first compound 0.253 µM
  relative viability: 0.411
COR-L 105; first compound 0.8 µM
  relative viability: 0.482
COR-L 105; first compound 2.53 µM
  relative viability: 0.475
NCI-H441; first compound 0.08 µM
  relative viability: 0.454
NCI-H441; first compound 0.253 µM
  relative viability: 0.408
NCI-H441; first compound 0.8 µM
  relative viability: 0.544
NCI-H441; first compound 2.53 µM
  relative viability: 0.471
NCI-H358; first compound 0.08 µM
  relative viability: 0.15
NCI-H358; first compound 0.253 µM
  relative viability: 0.109
NCI-H358; first compound 2.53 µM
  relative viability: 0.145
HOP-62; first compound 0.08 µM
  relative viability: 0.429
HOP-62; first compound 0.253 µM
  relative viability: 0.367
HOP-62; first compound 0.8 µM
  relative viability: 0.421
HOP-62; first compound 2.53 µM
  relative viability: 0.39
NCI-H2126; first compound 0.08 µM
  relative viability: 0.558
NCI-H2126; first compound 0.253 µM
  relative viability: 0.525
NCI-H2126; first compound 0.8 µM
  relative viability: 0.557
NCI-H2126; first compound 2.53 µM
  relative viability: 0.563
NCI-H1755; first compound 0.08 µM
  relative viability: 0.737
NCI-H1755; first compound 0.253 µM
  relative viability: 0.745
NCI-H1755; first compound 0.8 µM
  relative viability: 0.797
NCI-H1755; first compound 2.53 µM
  relative viability: 0.792
NCI-H322M; first compound 0.08 µM
  relative viability: 0.501
NCI-H322M; first compound 0.253 µM
  relative viability: 0.5
NCI-H322M; first compound 0.8 µM
  relative viability: 0.519
NCI-H322M; first compound 2.53 µM
  relative viability: 0.561
HCC-15; first compound 0.08 µM
  relative viability: 0.397
HCC-15; first compound 0.253 µM
  relative viability: 0.412
HCC-15; first compound 0.8 µM
  relative viability: 0.414
HCC-15; first compound 2.53 µM
  relative viability: 0.319
ChaGo-K-1; first compound 0.08 µM
  relative viability: 0.886
ChaGo-K-1; first compound 0.253 µM
  relative viability: 0.899
ChaGo-K-1; first compound 0.8 µM
  relative viability: 0.888
ChaGo-K-1; first compound 2.53 µM
  relative viability: 0.886
NCI-H1915; first compound 0.08 µM
  relative viability: 0.325
NCI-H1915; first compound 0.253 µM
  relative viability: 0.313
NCI-H1915; first compound 0.8 µM
  relative viability: 0.347
NCI-H1915; first compound 2.53 µM
  relative viability: 0.296
LXF-289; first compound 0.08 µM
  relative viability: 0.61
LXF-289; first compound 0.253 µM
  relative viability: 0.622
LXF-289; first compound 0.8 µM
  relative viability: 0.675
LXF-289; first compound 2.53 µM
  relative viability: 0.675
NCI-H2023; first compound 0.08 µM
  relative viability: 0.631
NCI-H2023; first compound 0.8 µM
  relative viability: 0.614
NCI-H2023; first compound 2.53 µM
  relative viability: 0.558
HCC-78; first compound 0.08 µM
  relative viability: 0.825
HCC-78; first compound 0.253 µM
  relative viability: 0.569
HCC-78; first compound 0.8 µM
  relative viability: 0.665
HCC-78; first compound 2.53 µM
  relative viability: 0.652
NCI-H2085; first compound 0.08 µM
  relative viability: 0.533
NCI-H2085; first compound 0.253 µM
  relative viability: 0.448
NCI-H2085; first compound 0.8 µM
  relative viability: 0.541
NCI-H2085; first compound 2.53 µM
  relative viability: 0.489
NCI-H3122; first compound 0.08 µM
  relative viability: 0.234
NCI-H3122; first compound 0.253 µM
  relative viability: 0.211
NCI-H3122; first compound 0.8 µM
  relative viability: 0.218
NCI-H3122; first compound 2.53 µM
  relative viability: 0.219
NCI-H1975; first compound 0.08 µM
  relative viability: 0.336
NCI-H1975; first compound 0.253 µM
  relative viability: 0.355
NCI-H1975; first compound 0.8 µM
  relative viability: 0.358
NCI-H1975; first compound 2.53 µM
  relative viability: 0.34
NCI-H1666; first compound 0.08 µM
  relative viability: 0.882
NCI-H1666; first compound 0.253 µM
  relative viability: 0.779
NCI-H1666; first compound 0.8 µM
  relative viability: 0.821
NCI-H1666; first compound 2.53 µM
  relative viability: 0.863
